The term Ki denotes a dissociation constant, usually derived from enzyme kinetics or from competition with a known ligand.

SMILES strings stand for the structures.

One assay concerns the target T1, full length human recombinant glucocorticoid receptor (Homo sapiens, UniProt P04150).
T1 construct: partially purified full length human recombinant glucocorticoid receptor; purchased Panvera/Invitrogen PV4302
T1 sequence (P04150 1-777): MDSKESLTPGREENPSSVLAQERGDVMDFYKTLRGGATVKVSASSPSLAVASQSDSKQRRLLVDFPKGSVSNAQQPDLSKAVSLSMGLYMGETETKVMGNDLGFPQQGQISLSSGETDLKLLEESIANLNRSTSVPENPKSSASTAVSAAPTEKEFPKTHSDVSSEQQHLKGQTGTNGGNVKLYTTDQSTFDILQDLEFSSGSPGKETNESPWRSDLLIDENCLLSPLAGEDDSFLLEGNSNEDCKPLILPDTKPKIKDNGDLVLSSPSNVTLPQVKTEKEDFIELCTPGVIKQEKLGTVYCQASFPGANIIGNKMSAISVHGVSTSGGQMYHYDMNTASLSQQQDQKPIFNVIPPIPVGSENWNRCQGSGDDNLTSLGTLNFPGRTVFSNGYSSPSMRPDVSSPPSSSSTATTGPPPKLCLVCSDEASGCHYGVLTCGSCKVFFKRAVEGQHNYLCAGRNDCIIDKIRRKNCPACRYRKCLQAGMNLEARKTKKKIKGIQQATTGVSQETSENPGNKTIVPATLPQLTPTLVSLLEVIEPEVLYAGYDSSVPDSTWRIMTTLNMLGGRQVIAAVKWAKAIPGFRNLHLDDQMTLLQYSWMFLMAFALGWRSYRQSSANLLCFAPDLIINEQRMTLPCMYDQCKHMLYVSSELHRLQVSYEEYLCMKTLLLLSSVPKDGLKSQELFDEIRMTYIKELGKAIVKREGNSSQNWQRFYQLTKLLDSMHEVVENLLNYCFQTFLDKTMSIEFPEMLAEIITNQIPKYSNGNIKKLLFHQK
Description: Glucocorticoid Receptor Binding Assay (fluorescence polarization competitor assay, Fluormone GS Far Red tracer).
Conditions: not given
Here is the method:
Glucocorticoid Receptor Binding Assay
The ability of the substances to bind to the glucocorticoid receptor was determined with the help of a commercial Glucocorticoid Receptor Competitor Assay far red kit provided by Panvera/Invitrogen (PV4302). This kit is used as provided by the supplier. It contains some partially purified full length human recombinant glucocorticoid receptor, a coactivator related GR stabilizing peptide, a tight-binding fluorescent GR ligand Fluormone™ GS Far Red as labeled tracer and a screening buffer. All reagents are prepared and the assay is run according to the recommendations of the kit manufacturer.
Briefly, the GR stabilizing peptide and the human recombinant glucocorticoid receptor are both diluted with the screening buffer (pH 7.4) and are gently mixed (no vortexing) just before the assay and kept on ice until use. The fluorescent-labeled ligand is also diluted with the screening buffer just before the assay and kept on ice until use. The substances to test are pre-diluted in pure DMSO then some water is added to get an intermediate 4.2% DMSO stock solution. Ten microliter of the intermediate stock solution is gently mixed with 5 μl of diluted fluorescent-labeled ligand and 5 μl of diluted human recombinant glucocorticoid receptor in a 384-well plate (low volume, ultraclear, glass plate from Greiner ref 788896). The plate is centrifuged, sealed and incubated for 3 hours at 22° C. in the dark. The polarized fluorescence is measured with a Zeiss-HTS reader or any equivalent equipment (610-660 nm).
All compounds were tested to determine IC50 in a serial dilution experiment. The concentration at which 50% inhibition of the fluorescent GR ligand Fluormone™ GS Far Red is obtained (the IC50) is determined after fitting with a sigmoidal dose-response model of a plot of the logarithm of the concentration versus percent inhibition measured for the different concentrations. Ki's were calculated from IC50 based on Cheng-Prusoff equation (Cheng, Y, Prusoff, W H (1973) Biochem Pharmacol 22, 3099-3108): Ki=IC50/[1+D/Kd] wherein D is the concentration of the fluorescent ligand and Kd is the binding constant for the fluorescent ligand binding to the receptor under the conditions used in the competition experiment.
On the technique in general: Fluorescence polarisation rises when a labelled molecule tumbles more slowly, as on binding a larger partner.
As to `Cc1cc([C@@](O)([C@@H](C)c2ccc(Oc3ccc(C(=O)O)cc3F)cc2Cl)C(F)(F)F)cn(C)c1=O` (relative stereo) [Example 216, 4-{3-Chloro-4-[2-(1,5-dimethyl-6-oxo-1,6-dihydro-pyridin-3-yl)-3,3,3-trifluoro-2-hydroxy-1-methyl-propyl]-phenoxy}-3-fluoro-benzoic acid], the inhibitory constant (Ki) amounted to 0.2 nM.

With `COC(=O)c1ccc(Oc2ccc([C@H](C)[C@](O)(c3cc(C)c(=O)n(C)c3)C(F)(F)F)c(Cl)c2)nc1` (relative stereo) [Example 217, 6-{3-Chloro-4-[2-(1,5-dimethyl-6-oxo-1,6-dihydro-pyridin-3-yl)-3,3,3-trifluoro-2-hydroxy-1-methyl-propyl]-phenoxy}-nicotinic acid methyl ester], the Ki came out at 2.9 nM.

Regarding `C[C@H](c1ccc(-c2ccc(F)c(C(=O)O)c2)cc1Cl)[C@@](O)(c1cnc2ccccc2c1)C(F)(F)F` (relative stereo) [Example 226, 3′-Chloro-4-fluoro-4′-(3,3,3-trifluoro-2-hydroxy-1-methyl-2-quinolin-3-yl-propyl)-biphenyl-3-carboxylic acid], the Ki was determined as 24.4 nM.

Consider `C[C@H](c1ccc(Oc2ncc(C(=O)O)cc2Cl)cc1Cl)[C@@](O)(c1ccc2nccnc2c1)C(F)(F)F` (relative stereo) [Example 227, 5-Chloro-6-[3-chloro-4-(3,3,3-trifluoro-2-hydroxy-1-methyl-2-quinoxalin-6-yl-propyl)-phenoxy]-nicotinic acid], for which the inhibitory constant (Ki) turned out to be 14.3 nM.

As for `Cc1cc([C@](O)([C@H](C)c2ccc(-c3ccc(C(=O)O)c(F)c3)cc2Cl)C(F)(F)F)sc1C#N` (relative stereo) [Example 229, 3′-Chloro-4′-[2-(5-cyano-4-methyl-thiophen-2-yl)-3,3,3-trifluoro-2-hydroxy-1-methyl-propyl]-3-fluoro-biphenyl-4-carboxylic acid], the Ki was found to be 11.2 nM.

Regarding `Cc1cc([C@](O)([C@H](C)c2ccc(Oc3ncc(C(=O)O)cc3Cl)cc2Cl)C(F)(F)F)cnc1C#N` (relative stereo) [Example 231, 5-Chloro-6-{3-chloro-4-[2-(6-cyano-5-methyl-pyridin-3-yl)-3,3,3-trifluoro-2-hydroxy-1-methyl-propyl]-phenoxy}-nicotinic acid], the Ki was found to be 1.7 nM.

For `COC(=O)c1cnc(Oc2ccc([C@@H](C)[C@@](O)(c3ccc(=O)n(C)c3)C(F)(F)F)c(Cl)c2Cl)cn1` (relative stereo) [Example 237, 5-{2,3-Dichloro-4-[3,3,3-trifluoro-2-hydroxy-1-methyl-2-(1-methyl-6-oxo-1,6-dihydro-pyridin-3-yl)-propyl]-phenoxy}-pyrazine-2-carboxylic acid methyl ester], the inhibition constant Ki was determined as 24.3 nM.

In the case of `CCOC(=O)C(C)(C)Oc1ccc([C@H](C)[C@](O)(c2ccc(=O)n(C)c2)C(F)(F)F)c(Cl)c1Cl` (relative stereo) [Example 239, 2-{2,3-Dichloro-4-[3,3,3-trifluoro-2-hydroxy-1-methyl-2-(1-methyl-6-oxo-1,6-dihydro-pyridin-3-yl)-propyl]-phenoxy}-2-methyl-propionic acid ethyl ester], the Ki was 14.5 nM.

On to `Cc1cc(C(=O)O)cnc1Oc1ccc([C@H](C)[C@](O)(c2cc(C)c(=O)n(C)c2)C(F)(F)F)c(Cl)c1` (relative stereo) [Example 252, 6-{3-Chloro-4-[2-(1,5-dimethyl-6-oxo-1,6-dihydro-pyridin-3-yl)-3,3,3-trifluoro-2-hydroxy-1-methyl-propyl]-phenoxy}-5-methyl-nicotinic acid], for which the Ki amounted to 1.1 nM.

With `COC(=O)c1cnc(Oc2ccc([C@H](C)[C@](O)(c3cc(C)c(=O)n(C)c3)C(F)(F)F)c(Cl)c2)nc1` (relative stereo) [Example 253, 2-{3-Chloro-4-[2-(1,5-dimethyl-6-oxo-1,6-dihydro-pyridin-3-yl)-3,3,3-trifluoro-2-hydroxy-1-methyl-propyl]-phenoxy}-pyrimidine-5-carboxylic acid methyl ester], the Ki was 1.5 nM.

In the case of `Cc1cc([C@@](O)([C@@H](C)c2ccc(Oc3ccc(C(=O)O)cc3C(F)(F)F)cc2Cl)C(F)(F)F)cn(C)c1=O` (single isomer, unassigned) [Example 219, 4-{3-Chloro-4-[2-(1,5-dimethyl-6-oxo-1,6-dihydro-pyridin-3-yl)-3,3,3-trifluoro-2-hydroxy-1-methyl-propyl]-phenoxy}-3-trifluoromethyl-benzoic acid], the Ki came to 1.7 nM.

As to `CCOC(=O)c1ccc(COc2ccc([C@@H](C)[C@@](O)(c3cnc(C)cn3)C(F)(F)F)c(Cl)c2)cc1` (stereo in doubt) [Example 7, 4-{3-Chloro-4-[(1R,2R)-3,3,3-trifluoro-2-hydroxy-1-methyl-2-(5-methyl-pyrazin-2-yl)-propyl]-phenoxymethyl}-benzoic acid ethyl ester], the inhibition constant (Ki) turned out to be 38.1 nM.

In the case of `Cc1cnc([C@](O)([C@H](C)c2ccc(OCc3ccc(CC(=O)O)cc3)cc2Cl)C(F)(F)F)cn1` (stereo in doubt) [Example 12, (4-{3-Chloro-4-[3,3,3-trifluoro-2-hydroxy-1-methyl-2-(5-methyl-pyrazin-2-yl)-propyl]-phenoxymethyl}-phenyl)-acetic acid], the Ki came out at 33.5 nM.

Turning to `COC(=O)c1ccc(COc2ccc([C@@H](C)[C@@](O)(c3cnc(C)cn3)C(F)(F)F)c(Cl)c2)c(Cl)c1` (stereo in doubt) [Example 13, 3-Chloro-4-{3-chloro-4-[3,3,3-trifluoro-2-hydroxy-1-methyl-2-(5-methyl-pyrazin-2-yl)-propyl]-phenoxymethyl}-benzoic acid methyl ester], the Ki amounted to 11.8 nM.

For `Cc1cnc([C@](O)([C@H](C)c2ccc(OCc3ccc(C(=O)O)cc3Cl)cc2Cl)C(F)(F)F)cn1` (stereo in doubt) [Example 14, 3-Chloro-4-{3-chloro-4-[3,3,3-trifluoro-2-hydroxy-1-methyl-2-(5-methyl-pyrazin-2-yl)-propyl]-phenoxymethyl}-benzoic acid], the Ki is 2.8 nM.

Turning to `COc1cc(C(=O)O)ccc1COc1ccc([C@@H](C)[C@@](O)(c2cnc(C)cn2)C(F)(F)F)c(Cl)c1` (stereo in doubt) [Example 16, 4-{3-Chloro-4-[3,3,3-trifluoro-2-hydroxy-1-methyl-2-(5-methyl-pyrazin-2-yl)-propyl]-phenoxymethyl}-3-methoxy-benzoic acid], the Ki stood at 72.3 nM.

For `COC(=O)C(C)c1ccc(COc2ccc([C@@H](C)[C@@](O)(c3cnc(C)cn3)C(F)(F)F)c(Cl)c2)cc1` (stereo in doubt) [Example 17, 2-(4-{3-Chloro-4-[3,3,3-trifluoro-2-hydroxy-1-methyl-2-(5-methyl-pyrazin-2-yl)-propyl]-phenoxymethyl}-phenyl)-propionic acid methyl ester], the Ki was found to be 33.9 nM.

Regarding `Cc1cnc([C@](O)([C@H](C)c2ccc(OCc3ccc(C(C)C(=O)O)cc3)cc2Cl)C(F)(F)F)cn1` (stereo in doubt) [Example 18, 2-(4-{3-Chloro-4-[3,3,3-trifluoro-2-hydroxy-1-methyl-2-(5-methyl-pyrazin-2-yl)-propyl]-phenoxymethyl}-phenyl)-propionic acid], the Ki stood at 110 nM.

The assay is the same for the next values; noted with them: Ki calculated from IC50 by Cheng-Prusoff; 3 hours at 22° C., pH 7.4.
Regarding `Cc1cc([C@@](O)([C@@H](C)c2ccc(Oc3ccc(C(=O)O)cc3C(F)(F)F)cc2Cl)C(F)(F)F)cn(C)c1=O` (single isomer, unassigned) [Example 241, 4-{3-Chloro-4-[2-(1,5-dimethyl-6-oxo-1,6-dihydro-pyridin-3-yl)-3,3,3-trifluoro-2-hydroxy-1-methyl-propyl]-phenoxy}-3-trifluoromethyl-benzoic acid], the Ki was 1.7 nM.

The values above are taken from patent US8138189B2, “Substituted benzene compounds as modulators of the glucocorticoid receptor” (Hoffman-La Roche Inc., priority 2009, dated 2012).
